What was measured:
[1] = In vivo observation of behavioural parameters (risk, side effects) in mouse model; design: species or system mice
Text: (§1) The risk (intended as side effects) was estimated through the observation of behavioural parameters (impacting the behaviour itself, the locomotor system, muscle strength and nervous reflexes) and through the potential weight loss of the animal.
(§2) Data obtained by animal testing, considered in the context of the risk, are behavioural parameters and body weight loss at the end of experimentation.
The behavioural parameters monitored are listed below: • 1. Loss of Spontaneous activity • 2. Loss of Cleaning • 3. Loss of Curiosity • 4. Loss of Reactivity • 5. Loss of Straightening reflex • 6. Loss of Physical strength • 7. Impairment of Palpebral opening • 8. Palpebral reflex • 9. Tremors • 10. Pallor • 11. Stereotypies • 12. Passivity
The values of the parameters 1-8 are normalized as: “Not treated animal value” (always equal to 0)+“Treated animal value”.
The values of the parameters 9-12 are normalized as: “Not treated animal value”−“Treated animal value”.
(§3) The benefit (intended as therapeutic activity) was instead evaluated by taking into consideration the reduction in size of the tumour mass compared to the untreated tumour. For this purpose, immunocompromised mice bearing xenografted FaDu head and neck squamous carcinoma cells were included in the study once tumours reached a volume of 100 mm^3. Mice received daily intratumoral injections of EpigenAU/11 and intraperitoneal cisplatin on alternating days.

[2] = In vivo body weight (potential weight loss) at the end of experimentation; design: species or system mice; details: mouse
Protocol: as §1, §2
The potential weight loss of the treated animals was also assessed.” Data were processed using the formula: […]
as §3

[3] = test system: xenografted FaDu head and neck squamous carcinoma cells; assay: In vivo tumour mass size in mice bearing xenografted FaDu cells (benefit); details: daily intratumoral EpigenAU/11, intraperitoneal cisplatin on alternating days; treated day 27; vehicle 1.38
Protocol: Data obtained by animal testing, considered in the context of benefit, is the tumour mass size reached at the end of in vivo test for each treatment.
Data were calculated as “Reduction in the size of tumour mass” by the formula:
1−[“Tumour mass size collected from treated animals (day of observation: 27)/Tumour mass size collected from untreated animals (day of observation: 19)]
as §3

For `N.N.[Cl][Pt][Cl]` [Cisplatin], the “Cleaning (Behaviour), Mean” value [1] was 2.90, the “Curiosity (Behaviour), Mean” value [1] was 2.60 and the “Pallor (Nervous system), Mean” value [1] was 2.00. The “Palpebral opening (Nervous system), Mean” value [1] was 2.00, the “Palpebral reflex (Nervous system), Mean” value [1] was 2.80 and the “Passivity (Behaviour), Mean” value [1] was 1.60. The “Physical strenght (Muscle), Mean” value [1] was 2.70, the “Reactivity (Behaviour), Mean” value [1] was 2.20 and the “Spontaneous activity (Behaviour), Mean” value [1] was 2.50. For the same molecule, the “Stereolipies (Locomotor system), Mean” value [1] was 0.00, the “Straightening reflex (Locomotor system), Mean” value [1] was 2.60 and the “Tremors (Nervous system), Mean” value [1] was 0.80. The “Body weight (Nutritional and metabolic system), Mean” value [2] was 29.12 and the “Size of tumor masses (Tumor viability), Mean” value [3] was 0.50.

Source: US20260229370A1, “[…] BENEFIT/RISK ASSESSMENT METHOD SUITABLE FOR THE PHYSIOLOGICAL ACTIVITY OF NATURAL MATRICES-BASED […] OR BENEFICIAL PRODUCTS WITH RESPECT TO THAT OF OTHER PRODUCTS WITH PHARMACOLOGICAL OR NUTRACEUTICAL ACTIVITY BASED ON […] MOLECULES” (Bios-Therapy, Physiological Systems for Health S.p.A., priority 2025, published 2026)
